Values joined by “and” are separate entries in the source; they are usually repeats but may differ in a detail not shown here. Identical values can stand only once. Records with an inconclusive call do not appear.
System: BDF1 mice, Friend leukemia sc, tumor weight T/C
Test: NCI In Vivo Anticancer Drug Screen. Data for tumor model Friend Virus Leukemia (Solid) (subcutaneous) in B6D2F1 (BDF1) mice
Conditions: endpoint: mean tumor weight, higher = larger tumour
Description: The antitumor activity of compounds was measured in mice bearing transplantable tumors. Survival or tumor size were measured and the results are expressed as the measurement made in the treated group (T) divided by the measurement made in the vehicle treated control group (C). The tumor model used in this assay is Friend Virus Leukemia (Solid) (subcutaneous) in B6D2F1 (BDF1) mice

[1] = dose: 3.0 mg/kg/injection, schedule: Q01DX011 (ip), vehicle: carboxymethylcellulose (CMC)
[2] = dose: 37.5 mg/kg/injection, schedule: Q01DX011 (ip), vehicle: carboxymethylcellulose (CMC)
[3] = dose: 75.0 mg/kg/injection, schedule: Q01DX011 (ip), vehicle: carboxymethylcellulose (CMC)
[4] = dose: 150.0 mg/kg/injection, schedule: Q01DX011 (ip), vehicle: carboxymethylcellulose (CMC)
[5] = dose: 10.0 mg/kg/injection, schedule: Q01DX011 (ip), vehicle: carboxymethylcellulose (CMC)
[6] = dose: 20.0 mg/kg/injection, schedule: Q01DX011 (ip), vehicle: carboxymethylcellulose (CMC)
[7] = dose: 60.0 mg/kg/injection, schedule: Q01DX011 (ip), vehicle: carboxymethylcellulose (CMC)
[8] = dose: 15.0 mg/kg/injection, schedule: Q01DX011 (ip), vehicle: carboxymethylcellulose (CMC)
[9] = dose: 0.5 mg/kg/injection, schedule: Q01DX011 (ip), vehicle: carboxymethylcellulose (CMC)

Q: Which T/C (dose: 14.0 mg/kg/injection, schedule: Q01DX011 (ip), vehicle: carboxymethylcellulose (CMC)) does the source give for `CS(=O)(=O)OCCCl` here?
A: 67 % of control

Q: And the T/C (dose: 28.0 mg/kg/injection, schedule: Q01DX011 (ip), vehicle: carboxymethylcellulose (CMC))?
A: 70 % of control

Q: What about the T/C (dose: 57.0 mg/kg/injection, schedule: Q01DX011 (ip), vehicle: carboxymethylcellulose (CMC)) of the same molecule?
A: 69 % of control

Q: And the T/C (dose: 115.0 mg/kg/injection, schedule: Q01DX011 (ip), vehicle: carboxymethylcellulose (CMC))?
A: 60 % of control

Q: With `O=c1[nH]cnc2n[nH]nc12` as the molecule, how does the T/C (dose: 62.5 mg/kg/injection, schedule: Q01DX011 (ip), vehicle: carboxymethylcellulose (CMC)) read?
A: 71 % of control

Q: And the T/C (dose: 125.0 mg/kg/injection, schedule: Q01DX011 (ip), vehicle: carboxymethylcellulose (CMC))?
A: 55 % of control

Q: What about the T/C (dose: 250.0 mg/kg/injection, schedule: Q01DX011 (ip), vehicle: carboxymethylcellulose (CMC)) of the same molecule?
A: 31 % of control and 36 % of control

Q: What about the T/C (dose: 500.0 mg/kg/injection, schedule: Q01DX011 (ip), vehicle: carboxymethylcellulose (CMC)) of the same molecule?
A: 11 % of control and 17 % of control

Q: Which T/C (dose: 9.0 mg/kg/injection, schedule: Q01DX011 (ip), vehicle: carboxymethylcellulose (CMC)) does the source give for `COS(C)(=O)=O` here?
A: 167 % of control

Q: What about the T/C (dose: 9.37 mg/kg/injection, schedule: Q01DX011 (ip), vehicle: saline) of the same molecule?
A: 116 % of control

Q: And the T/C (dose: 18.0 mg/kg/injection, schedule: Q01DX011 (ip), vehicle: carboxymethylcellulose (CMC))?
A: 98 % of control

Q: And the T/C (dose: 18.75 mg/kg/injection, schedule: Q01DX011 (ip), vehicle: saline)?
A: 114 % of control

Q: And the T/C (dose: 37.5 mg/kg/injection, schedule: Q01DX011 (ip), vehicle: saline)?
A: 85 % of control

Q: What about the T/C (dose: 75.0 mg/kg/injection, schedule: Q01DX011 (ip), vehicle: saline) of the same molecule?
A: 76 % of control

Q: And the T/C (dose: 100.0 mg/kg/injection, schedule: Q01DX011 (ip), vehicle: saline)?
A: 69 % of control

Q: How did the T/C (dose: 0.75 mg/kg/injection, schedule: Q01DX011 (ip), vehicle: carboxymethylcellulose (CMC)) turn out when `Cc1nc(N)nc(N)c1-c1ccc(Cl)c(Cl)c1` was run?
A: 96 % of control

Q: What about the T/C (dose: 1.5 mg/kg/injection, schedule: Q01DX011 (ip), vehicle: carboxymethylcellulose (CMC)) of the same molecule?
A: 105 % of control

Q: What about the T/C [1] of the same molecule?
A: 59 % of control

Q: How did the T/C (dose: 9.62 mg/kg/injection, schedule: Q01DX011 (ip), vehicle: carboxymethylcellulose (CMC)) turn out when `NNC(=O)NC(=O)NN` was run?
A: 90 % of control

Q: What about the T/C (dose: 19.25 mg/kg/injection, schedule: Q01DX011 (ip), vehicle: carboxymethylcellulose (CMC)) of the same molecule?
A: 100 % of control

Q: What about the T/C (dose: 77.0 mg/kg/injection, schedule: Q01DX011 (ip), vehicle: carboxymethylcellulose (CMC)) of the same molecule?
A: 105 % of control

Q: For `COC(=O)/C=C\C(=O)O` (tested in a mixture with another compound), which T/C (dose: 14.0 mg/kg/injection, schedule: Q#A X022 (ip), vehicle: carboxymethylcellulose (CMC)) is on record?
A: 88 % of control

Q: And the T/C (dose: 28.0 mg/kg/injection, schedule: Q#A X022 (ip), vehicle: carboxymethylcellulose (CMC))?
A: 92 % of control

Q: What about the T/C (dose: 31.0 mg/kg/injection, schedule: Q#A X022 (ip), vehicle: carboxymethylcellulose (CMC)) of the same molecule?
A: 68 % of control

Q: What about the T/C (dose: 56.0 mg/kg/injection, schedule: Q#A X022 (ip), vehicle: carboxymethylcellulose (CMC)) of the same molecule?
A: 49 % of control

Q: What about the T/C (dose: 62.5 mg/kg/injection, schedule: Q#A X022 (ip), vehicle: carboxymethylcellulose (CMC)) of the same molecule?
A: 36 % of control

Q: `COC(=S)SCN(CSC(=S)OC)c1ccccc1Cl` was tested. Which T/C (dose: 125.0 mg/kg/injection, schedule: Q01DX011 (ip), vehicle: saline) did it give?
A: 95 % of control

Q: What about the T/C (dose: 250.0 mg/kg/injection, schedule: Q01DX011 (ip), vehicle: saline) of the same molecule?
A: 107 % of control

Q: With `CCCSc1ncnc2nc[nH]c12` as the molecule, how does the T/C (dose: 18.75 mg/kg/injection, schedule: Q01DX011 (ip), vehicle: carboxymethylcellulose (CMC)) read?
A: 64 % of control

Q: And the T/C [2]?
A: 64 % of control

Q: And the T/C [3]?
A: 45 % of control

Q: And the T/C [4]?
A: 8 % of control

Q: What does the source list for `CN(N=O)C(=O)Nc1c[nH]c(=O)[nH]c1=O`?
A: T/C (dose: 5.0 mg/kg/injection, schedule: Q01DX011 (ip), vehicle: carboxymethylcellulose (CMC)): 108 % of control; T/C [5]: 93 % of control; T/C [6]: 91 % of control; T/C (dose: 40.0 mg/kg/injection, schedule: Q01DX011 (ip), vehicle: carboxymethylcellulose (CMC)): 39 % of control; T/C [7]: 45 % of control; T/C (dose: 80.0 mg/kg/injection, schedule: Q01DX011 (ip), vehicle: carboxymethylcellulose (CMC)): 23 % of control

Q: `C[C@@H]1C[C@@H]([C@H](O)CC2CC(=O)NC(=O)C2)C(=O)[C@@H](C)C1` was tested. Which T/C (dose: 4.3 mg/kg/injection, schedule: Q01DX011 (ip), vehicle: carboxymethylcellulose (CMC)) did it give?
A: 80 % of control

Q: And the T/C [8]?
A: 31 % of control and 46 % of control

Q: Which T/C (dose: 0.31 mg/kg/injection, schedule: Q01DX011 (ip), vehicle: carboxymethylcellulose (CMC)) does the source give for `O=C(Nc1ccc(C2=NCCN2)cc1)c1ccc(C(=O)Nc2ccc(C3=NCCN3)cc2)c(Cl)c1` here?
A: 66 % of control

Q: What about the T/C [9] of the same molecule?
A: 93 % of control

Q: What about the T/C (dose: 0.63 mg/kg/injection, schedule: Q01DX011 (ip), vehicle: carboxymethylcellulose (CMC)) of the same molecule?
A: 50 % of control

Q: What about the T/C (dose: 1.25 mg/kg/injection, schedule: Q01DX011 (ip), vehicle: carboxymethylcellulose (CMC)) of the same molecule?
A: 40 % of control and 46 % of control

Q: What about the T/C (dose: 2.5 mg/kg/injection, schedule: Q01DX011 (ip), vehicle: carboxymethylcellulose (CMC)) of the same molecule?
A: 39 % of control

Q: What about the T/C [5] of the same molecule?
A: 93 % of control

Q: And the T/C [8]?
A: 21 % of control [middle of 4 runs]

Q: What about the T/C [6] of the same molecule?
A: 6 % of control

Q: Which results are given for `CCC(C)C(NN)C(=O)O` (stereo not drawn)?
A: T/C (dose: 2.5 mg/kg/injection, schedule: Q01DX011 (ip), vehicle: other): 84 % of control; T/C (dose: 5.0 mg/kg/injection, schedule: Q01DX011 (ip), vehicle: other): 104 % of control; T/C (dose: 10.0 mg/kg/injection, schedule: Q01DX011 (ip), vehicle: other): 81 % of control; T/C (dose: 20.0 mg/kg/injection, schedule: Q01DX011 (ip), vehicle: other): 89 % of control; T/C (dose: 40.0 mg/kg/injection, schedule: Q01DX011 (ip), vehicle: other): 83 % of control; T/C (dose: 50.0 mg/kg/injection, schedule: Q01DX011 (ip), vehicle: other): 21 % of control

Q: `NNC(=O)c1nsnc1NC(N)=O` was tested. Which T/C (dose: 43.0 mg/kg/injection, schedule: Q01DX011 (ip), vehicle: carboxymethylcellulose (CMC)) did it give?
A: 53 % of control

Q: What about the T/C [7] of the same molecule?
A: 46 % of control

Q: How did the T/C (dose: 19.0 mg/kg/injection, schedule: Q01DX011 (ip), vehicle: carboxymethylcellulose (CMC)) turn out when `O=c1[nH]c2cc(Cl)c(Cl)cc2o1` was run?
A: 90 % of control

Q: And the T/C [2]?
A: 81 % of control

Q: And the T/C [3]?
A: 82 % of control

Q: What about the T/C [4] of the same molecule?
A: 77 % of control

Q: What does the source list for `CC(/C=N/N=C(N)N)=N\N=C(N)N`?
A: T/C (dose: 12.5 mg/kg/injection, schedule: Q01DX011 (ip), vehicle: saline): 155 % of control; T/C (dose: 25.0 mg/kg/injection, schedule: Q01DX011 (ip), vehicle: saline): 190 % of control; T/C (dose: 50.0 mg/kg/injection, schedule: Q01DX011 (ip), vehicle: saline): 169 % of control

Q: With `CCCCCC(=O)O[C@]1(C(C)=O)CC[C@H]2[C@@H]3CCC4=CC(=O)CC[C@]4(C)[C@H]3CC[C@@]21C` as the molecule, how does the T/C (dose: 125.0 mg/kg/injection, schedule: Q01DX011 (sc), vehicle: steriod suspending solution) read?
A: 173 % of control

Q: And the T/C (dose: 250.0 mg/kg/injection, schedule: Q01DX011 (sc), vehicle: steriod suspending solution)?
A: 166 % of control

Q: What about the T/C (dose: 375.0 mg/kg/injection, schedule: Q01DX011 (sc), vehicle: steriod suspending solution) of the same molecule?
A: 156 % of control

Q: What about the T/C (dose: 750.0 mg/kg/injection, schedule: Q01DX011 (sc), vehicle: steriod suspending solution) of the same molecule?
A: 124 % of control

Q: How did the T/C [9] turn out when `CCn1cnc2c(=S)nc(N)[nH]c21` was run?
A: 76 % of control

Q: And the T/C (dose: 1.0 mg/kg/injection, schedule: Q01DX011 (ip), vehicle: carboxymethylcellulose (CMC))?
A: 89 % of control

Q: And the T/C [1]?
A: 24 % of control and 49 % of control

Q: And the T/C (dose: 7.0 mg/kg/injection, schedule: Q01DX011 (ip), vehicle: carboxymethylcellulose (CMC))?
A: 11 % of control

Q: What about the T/C [8] of the same molecule?
A: 4 % of control and 18 % of control

Q: Which results are given for `Cn1c(=O)c2[nH]cnc2n(C)c1=O`?
A: T/C (dose: 14.5 mg/kg/injection, schedule: Q01DX011 (ip), vehicle: carboxymethylcellulose (CMC)): 97 % of control; T/C (dose: 29.0 mg/kg/injection, schedule: Q01DX011 (ip), vehicle: carboxymethylcellulose (CMC)): 93 % of control; T/C (dose: 58.0 mg/kg/injection, schedule: Q01DX011 (ip), vehicle: carboxymethylcellulose (CMC)): 82 % of control; T/C (dose: 116.0 mg/kg/injection, schedule: Q01DX011 (ip), vehicle: carboxymethylcellulose (CMC)): 66 % of control

Q: `NC(=O)/C=C/C(=O)O` (tested in a mixture with another compound) was tested. Which T/C (dose: 7.5 mg/kg/injection, schedule: Q#A X022 (ip), vehicle: carboxymethylcellulose (CMC)) did it give?
A: 78 % of control

Q: What about the T/C (dose: 15.5 mg/kg/injection, schedule: Q#A X022 (ip), vehicle: carboxymethylcellulose (CMC)) of the same molecule?
A: 66 % of control
